Inconclusive results and toxic doses are left out. No stated cut-off is given here; in the data, active means T/C of 150% or more; inactive means T/C below 125%.
Test system: L1210 leukemia ip in BDF1 mice, survival T/C
Experiment: NCI In Vivo Anticancer Drug Screen. Data for tumor model L1210 Leukemia (intraperitoneal) in B6D2F1 (BDF1) mice
Conditions: endpoint: mean survival time, higher = longer survival
Summary of the method: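 Each compound was tested against a transplantable tumor grown in mice. The endpoint was survival, with treated animals benchmarked against vehicle controls as a simple ratio.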

[1] = dose: 100.0 mg/kg/injection, schedule: Q04DX003 (ip), vehicle: saline
[2] = dose: 200.0 mg/kg/injection, schedule: Q04DX003 (ip), vehicle: saline
[3] = dose: 400.0 mg/kg/injection, schedule: Q04DX003 (ip), vehicle: saline
[4] = dose: 100.0 mg/kg/injection, schedule: Q01DX001 (ip), vehicle: saline
[5] = dose: 200.0 mg/kg/injection, schedule: Q01DX001 (ip), vehicle: saline
[6] = dose: 50.0 mg/kg/injection, schedule: Q01DX009 (ip), vehicle: saline with Tween-80
[7] = dose: 100.0 mg/kg/injection, schedule: Q01DX009 (ip), vehicle: saline with Tween-80
[8] = dose: 100.0 mg/kg/injection, schedule: Q04DX003 (ip), vehicle: saline with Tween-80
[9] = dose: 200.0 mg/kg/injection, schedule: Q04DX003 (ip), vehicle: saline with Tween-80
[10] = dose: 200.0 mg/kg/injection, schedule: Q01DX009 (ip), vehicle: saline with Tween-80
[11] = dose: 400.0 mg/kg/injection, schedule: Q01DX001 (ip), vehicle: saline
[12] = dose: 100.0 mg/kg/injection, schedule: Q04DX002 (ip), vehicle: Klucel (hydroxypropylcellulose) (HPC)
[13] = dose: 200.0 mg/kg/injection, schedule: Q04DX002 (ip), vehicle: Klucel (hydroxypropylcellulose) (HPC)
[14] = dose: 400.0 mg/kg/injection, schedule: Q04DX002 (ip), vehicle: Klucel (hydroxypropylcellulose) (HPC)
[15] = dose: 100.0 mg/kg/injection, schedule: Q04DX003 (ip), vehicle: Klucel (hydroxypropylcellulose) (HPC)
[16] = dose: 100.0 mg/kg/injection, schedule: Q04DX002 (ip), vehicle: saline with Tween-80
[17] = dose: 200.0 mg/kg/injection, schedule: Q04DX002 (ip), vehicle: saline with Tween-80
[18] = dose: 100.0 mg/kg/injection, schedule: Q01DX009 (ip), vehicle: Klucel (hydroxypropylcellulose) (HPC)
[19] = dose: 200.0 mg/kg/injection, schedule: Q01DX009 (ip), vehicle: Klucel (hydroxypropylcellulose) (HPC)
[20] = dose: 400.0 mg/kg/injection, schedule: Q01DX009 (ip), vehicle: Klucel (hydroxypropylcellulose) (HPC)

Measured: T/C

ClCCCCC(Cl)(Cl)Cl
inactive: dose: 75.0 mg/kg/injection, schedule: Q01DX009 (ip), vehicle: saline 93 % of control | [1] 102 % of control | dose: 150.0 mg/kg/injection, schedule: Q01DX009 (ip), vehicle: saline 91 % of control | [2] 98 % of control | dose: 300.0 mg/kg/injection, schedule: Q01DX009 (ip), vehicle: saline 90 % of control | [3] 108 % of control

CNNc1cc(CO)cnc1SC
inactive: [4] 105 % of control | [5] 104 % of control

CC(=O)Nc1ccc2cnn(C(C)=O)c2c1
inactive: dose: 50.0 mg/kg/injection, schedule: Q01DX009 (ip), vehicle: water 94 % of control | dose: 100.0 mg/kg/injection, schedule: Q01DX009 (ip), vehicle: water 98 % of control | dose: 100.0 mg/kg/injection, schedule: Q04DX003 (ip), vehicle: water 104 % of control | dose: 200.0 mg/kg/injection, schedule: Q01DX009 (ip), vehicle: water 100 % of control | dose: 200.0 mg/kg/injection, schedule: Q04DX003 (ip), vehicle: water 94 % of control | dose: 400.0 mg/kg/injection, schedule: Q04DX003 (ip), vehicle: water 106 % of control

O=C(CCl)Oc1ccccc1
inactive: [6] 94 % of control | [7] 87 % of control | [8] 101 % of control | [9] 96 % of control

N=C(c1ccccc1)c1ccccc1S(=O)(=O)Nc1ccccc1
inactive: dose: 100.0 mg/kg/injection, schedule: Q01DX001 (ip), vehicle: carboxymethylcellulose (CMC) 95 % of control | dose: 200.0 mg/kg/injection, schedule: Q01DX001 (ip), vehicle: carboxymethylcellulose (CMC) 101 % of control | dose: 400.0 mg/kg/injection, schedule: Q01DX001 (ip), vehicle: carboxymethylcellulose (CMC) 95 % of control

O=C1C=C(N2CC2)c2ccccc2C1=O
inactive: dose: 2.5 mg/kg/injection, schedule: Q01DX009 (ip), vehicle: Klucel (hydroxypropylcellulose) (HPC) 101 % of control | dose: 2.5 mg/kg/injection, schedule: Q04DX003 (ip), vehicle: Klucel (hydroxypropylcellulose) (HPC) 104 % of control | dose: 5.0 mg/kg/injection, schedule: Q01DX009 (ip), vehicle: Klucel (hydroxypropylcellulose) (HPC) 96 % of control | dose: 5.0 mg/kg/injection, schedule: Q04DX003 (ip), vehicle: Klucel (hydroxypropylcellulose) (HPC) 104 % of control | dose: 10.0 mg/kg/injection, schedule: Q01DX009 (ip), vehicle: Klucel (hydroxypropylcellulose) (HPC) 100 % of control | dose: 10.0 mg/kg/injection, schedule: Q04DX003 (ip), vehicle: Klucel (hydroxypropylcellulose) (HPC) 102 % of control | dose: 20.0 mg/kg/injection, schedule: Q01DX001 (ip), vehicle: Klucel (hydroxypropylcellulose) (HPC) 105 % of control | dose: 20.0 mg/kg/injection, schedule: Q01DX009 (ip), vehicle: Klucel (hydroxypropylcellulose) (HPC) 104 % of control | dose: 20.0 mg/kg/injection, schedule: Q04DX003 (ip), vehicle: Klucel (hydroxypropylcellulose) (HPC) 109 % of control

COc1cc(/C=N\NC(=O)CNC(=O)Nc2cccc(Cl)c2)ccc1O
inactive: [7] 90 % of control | [10] 87 % of control

COc1ccc(/C=C(\CC(=O)c2ccccc2)C(=O)Nc2ccccc2)cc1
inactive: [4] 93 % of control | [1] 109 % of control | [5] 96 % of control | [2] 98 % of control | [11] 103 % of control | [3] 95 % of control

CCOP(N)(=S)OCC
inactive: dose: 75.0 mg/kg/injection, schedule: Q01DX001 (ip), vehicle: saline 102 % of control | dose: 150.0 mg/kg/injection, schedule: Q01DX001 (ip), vehicle: saline 102 % of control

S=C(Nc1ccccc1)Nc1ccc(Br)cc1
inactive: [12] 101 % of control | [13] 105 % of control | [14] 97 % of control

CSc1nncc(-c2ccccc2)n1
inactive: dose: 25.0 mg/kg/injection, schedule: Q04DX003 (ip), vehicle: Klucel (hydroxypropylcellulose) (HPC) 97 % of control | dose: 50.0 mg/kg/injection, schedule: Q04DX003 (ip), vehicle: Klucel (hydroxypropylcellulose) (HPC) 96 % of control | dose: 100.0 mg/kg/injection, schedule: Q01DX001 (ip), vehicle: Klucel (hydroxypropylcellulose) (HPC) 100 % of control | [15] 102 % of control

CCC(C)COS(=O)(=O)c1ccc(C)cc1 (stereo not given)
inactive: [16] 103 % of control | [17] 103 % of control | dose: 400.0 mg/kg/injection, schedule: Q04DX002 (ip), vehicle: saline with Tween-80 100 % of control

CC1=CC23C(COC(=O)C24CO4)C(C(=O)O)=CC3C1C (stereo not given)
inactive: dose: 10.0 mg/kg/injection, schedule: Q01DX001 (ip), vehicle: saline 96 % of control

N#CSc1ccc(Nc2ccc(SC#N)cc2)cc1
inactive: dose: 12.5 mg/kg/injection, schedule: Q01DX009 (ip), vehicle: Klucel (hydroxypropylcellulose) (HPC) 95 % of control | dose: 25.0 mg/kg/injection, schedule: Q01DX009 (ip), vehicle: Klucel (hydroxypropylcellulose) (HPC) 98 % of control

CCOC1=CC(=O)C(C)(CC=C(C)C)C(C)C1 (stereo not given)
inactive: [6] 100 % of control | [7] 92 % of control | [10] 96 % of control

COc1cccc(/C=C/C(=O)c2ccc(Cl)cc2)c1OC
inactive: [7] 101 % of control | [8] 96 % of control | [10] 88 % of control | [9] 91 % of control | dose: 400.0 mg/kg/injection, schedule: Q01DX009 (ip), vehicle: saline with Tween-80 87 % of control | dose: 400.0 mg/kg/injection, schedule: Q04DX003 (ip), vehicle: saline with Tween-80 90 % of control

Cc1cccc(NC(=O)NCCCl)c1
inactive: dose: 100.0 mg/kg/injection, schedule: Q01DX001 (ip), vehicle: other 97 % of control | [18] 95 % of control | [12] 102 % of control | dose: 200.0 mg/kg/injection, schedule: Q01DX001 (ip), vehicle: other 105 % of control | [19] 92 % of control | [13] 113 % of control | dose: 400.0 mg/kg/injection, schedule: Q01DX001 (ip), vehicle: other 97 % of control | [20] 92 % of control | [14] 102 % of control

O=S(=O)(CCCCCCl)Cc1ccccc1
inactive: [4] 93 % of control | [5] 93 % of control | [11] 96 % of control

COC1OC(CO)C(OS(=O)(=O)c2ccc(C)cc2)C(C(=O)Oc2ccccc2)C1OC(=O)c1ccccc1 (stereo not given)
inactive: dose: 50.0 mg/kg/injection, schedule: Q04DX002 (ip), vehicle: saline with Tween-80 93 % of control | [16] 104 % of control | [17] 90 % of control

CCC(C)(C)c1ccc(O)c(C(C)(C)CC)c1
inactive: [18] 96 % of control | [15] 100 % of control | [19] 96 % of control | dose: 200.0 mg/kg/injection, schedule: Q04DX003 (ip), vehicle: Klucel (hydroxypropylcellulose) (HPC) 89 % of control | [20] 96 % of control | dose: 400.0 mg/kg/injection, schedule: Q04DX003 (ip), vehicle: Klucel (hydroxypropylcellulose) (HPC) 87 % of control

CC(=O)OC1CCC2(C)C(C1)C(OC(C)=O)CC1C3CCC(c4cccc(=O)o4)C3(C)CCC12 (stereo not given)
inactive: dose: 100.0 mg/kg/injection, schedule: Q01DX001 (sc), vehicle: steriod suspending solution 101 % of control | dose: 200.0 mg/kg/injection, schedule: Q01DX001 (sc), vehicle: steriod suspending solution 102 % of control | dose: 400.0 mg/kg/injection, schedule: Q01DX001 (sc), vehicle: steriod suspending solution 112 % of control

OCCCN=Cc1ccccc1O.OCCCN=Cc1ccccc1O.[Cu]
inactive: dose: 9.5 mg/kg/injection, schedule: Q01DX001 (ip), vehicle: other 92 % of control | dose: 19.0 mg/kg/injection, schedule: Q01DX001 (ip), vehicle: other 97 % of control | dose: 38.0 mg/kg/injection, schedule: Q01DX001 (ip), vehicle: other 100 % of control | dose: 75.0 mg/kg/injection, schedule: Q01DX001 (ip), vehicle: other 114 % of control

Reference: PubChem BioAssay AID248 (DTP/NCI, 2004)
